Test results as given in ChEMBL document CHEMBL4304778 (Eur J Med Chem, 2019).

Tests used:
[1] = tested on: M21; test: Antiproliferative activity against human M21 cells bt MTT assay; format: functional, cell-based
[2] = target: Vascular endothelial growth factor receptor 3 (Homo sapiens, UniProt P35916); test: Inhibition of VEGFR3 (unknown origin)
[3] = tested on: HepG2; test: Antitumor activity against human HepG2 cells by MTT assay; format: functional, cell-based
[4] = tested on: MCF7; test: Antitumor activity against human MCF7 cells by MTT assay; format: functional, cell-based
[5] = tested on: PC-3; test: Antitumor activity against human PC3 cells by MTT assay; format: functional, cell-based
[6] = tested on: PLC; test: Cytotoxicity against human PLC cells; format: functional, cell-based
[7] = tested on: Hep 3B2; test: Induction of apoptosis in human Hep3B cells relative to control; format: functional
[8] = tested on: HepG2; test: Induction of apoptosis in human HepG2 cells relative to control; format: functional
[9] = target: Signal transducer and activator of transcription 3 (Homo sapiens) (UniProt P40763); test: Activation of STAT3 phosphorylation at Y705 residue in human Huh7 cells relative to control; format: cell-based
[10] = Induction of apoptosis in human PLC5 cells relative to control; format: functional
[11] = target: Vascular endothelial growth factor receptor 1 (Homo sapiens, UniProt P17948); test: Inhibition of VEGFR1 (unknown origin)
[12] = tested on: SMMC-7721; test: Cytotoxicity against human SMMC7721 cells after 24 hrs by MTT assay; format: functional, cell-based; details: SMMC-7721, 24 h
[13] = tested on: HepG2; test: Cytotoxicity against human HepG2 cells after 24 hrs by MTT assay; format: functional, cell-based; details: HepG2, 24 h

Chain of Signal transducer and activator of transcription 3 (Homo sapiens) (P40763 whole entry): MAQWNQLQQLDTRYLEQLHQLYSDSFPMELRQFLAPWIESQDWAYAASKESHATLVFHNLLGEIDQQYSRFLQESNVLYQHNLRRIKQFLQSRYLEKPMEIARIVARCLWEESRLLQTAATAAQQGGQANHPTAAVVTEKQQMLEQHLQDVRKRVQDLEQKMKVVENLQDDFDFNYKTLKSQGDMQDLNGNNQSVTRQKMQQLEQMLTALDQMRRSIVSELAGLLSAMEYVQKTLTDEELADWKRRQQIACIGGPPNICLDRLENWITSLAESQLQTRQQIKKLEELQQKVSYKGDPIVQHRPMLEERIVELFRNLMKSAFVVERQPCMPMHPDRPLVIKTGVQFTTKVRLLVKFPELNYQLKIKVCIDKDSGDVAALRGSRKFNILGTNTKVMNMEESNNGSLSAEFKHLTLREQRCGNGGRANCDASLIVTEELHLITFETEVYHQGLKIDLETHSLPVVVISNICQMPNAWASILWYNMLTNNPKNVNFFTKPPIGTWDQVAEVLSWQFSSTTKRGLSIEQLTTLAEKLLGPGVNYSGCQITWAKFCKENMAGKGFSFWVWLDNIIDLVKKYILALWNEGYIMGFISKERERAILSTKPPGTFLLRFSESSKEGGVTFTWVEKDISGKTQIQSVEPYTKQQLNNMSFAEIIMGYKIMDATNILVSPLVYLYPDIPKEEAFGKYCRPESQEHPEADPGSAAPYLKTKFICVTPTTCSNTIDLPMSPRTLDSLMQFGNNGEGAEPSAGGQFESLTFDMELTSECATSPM
Chain of Vascular endothelial growth factor receptor 3 (P35916 whole entry): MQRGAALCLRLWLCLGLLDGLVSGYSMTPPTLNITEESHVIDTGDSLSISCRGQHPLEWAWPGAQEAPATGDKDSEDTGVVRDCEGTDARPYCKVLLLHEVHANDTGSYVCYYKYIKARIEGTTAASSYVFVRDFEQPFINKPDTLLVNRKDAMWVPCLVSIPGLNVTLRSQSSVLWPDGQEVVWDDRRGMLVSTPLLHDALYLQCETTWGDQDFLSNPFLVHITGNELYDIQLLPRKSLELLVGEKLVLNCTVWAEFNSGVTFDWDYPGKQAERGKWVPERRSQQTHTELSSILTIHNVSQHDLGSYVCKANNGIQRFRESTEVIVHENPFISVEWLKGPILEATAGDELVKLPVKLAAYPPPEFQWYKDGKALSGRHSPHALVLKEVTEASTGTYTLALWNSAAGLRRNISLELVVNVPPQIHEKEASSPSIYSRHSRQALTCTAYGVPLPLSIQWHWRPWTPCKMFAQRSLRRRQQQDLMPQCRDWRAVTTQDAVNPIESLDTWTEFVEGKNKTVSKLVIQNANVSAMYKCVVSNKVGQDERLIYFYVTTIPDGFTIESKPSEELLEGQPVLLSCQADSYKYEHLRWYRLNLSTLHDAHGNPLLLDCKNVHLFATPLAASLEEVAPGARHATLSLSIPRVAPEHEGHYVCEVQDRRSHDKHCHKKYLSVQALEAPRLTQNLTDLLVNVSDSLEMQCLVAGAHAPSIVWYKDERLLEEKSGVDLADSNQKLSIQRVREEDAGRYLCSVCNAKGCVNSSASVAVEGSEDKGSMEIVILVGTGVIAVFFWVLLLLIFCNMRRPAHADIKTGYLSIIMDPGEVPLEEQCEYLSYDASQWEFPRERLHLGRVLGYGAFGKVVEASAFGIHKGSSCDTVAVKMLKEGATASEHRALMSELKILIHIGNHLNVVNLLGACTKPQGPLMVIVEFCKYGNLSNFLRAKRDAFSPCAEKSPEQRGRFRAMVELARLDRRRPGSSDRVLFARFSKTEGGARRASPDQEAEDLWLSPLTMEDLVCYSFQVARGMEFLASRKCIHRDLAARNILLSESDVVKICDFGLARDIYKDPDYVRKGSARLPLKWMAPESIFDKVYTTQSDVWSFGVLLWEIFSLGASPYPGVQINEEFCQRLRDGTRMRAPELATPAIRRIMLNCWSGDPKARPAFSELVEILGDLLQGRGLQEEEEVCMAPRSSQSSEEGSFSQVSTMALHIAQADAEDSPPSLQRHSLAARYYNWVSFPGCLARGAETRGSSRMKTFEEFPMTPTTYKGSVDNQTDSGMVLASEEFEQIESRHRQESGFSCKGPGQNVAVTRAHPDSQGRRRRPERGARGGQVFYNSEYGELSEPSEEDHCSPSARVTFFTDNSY
Chain of Vascular endothelial growth factor receptor 1 (P17948 whole entry): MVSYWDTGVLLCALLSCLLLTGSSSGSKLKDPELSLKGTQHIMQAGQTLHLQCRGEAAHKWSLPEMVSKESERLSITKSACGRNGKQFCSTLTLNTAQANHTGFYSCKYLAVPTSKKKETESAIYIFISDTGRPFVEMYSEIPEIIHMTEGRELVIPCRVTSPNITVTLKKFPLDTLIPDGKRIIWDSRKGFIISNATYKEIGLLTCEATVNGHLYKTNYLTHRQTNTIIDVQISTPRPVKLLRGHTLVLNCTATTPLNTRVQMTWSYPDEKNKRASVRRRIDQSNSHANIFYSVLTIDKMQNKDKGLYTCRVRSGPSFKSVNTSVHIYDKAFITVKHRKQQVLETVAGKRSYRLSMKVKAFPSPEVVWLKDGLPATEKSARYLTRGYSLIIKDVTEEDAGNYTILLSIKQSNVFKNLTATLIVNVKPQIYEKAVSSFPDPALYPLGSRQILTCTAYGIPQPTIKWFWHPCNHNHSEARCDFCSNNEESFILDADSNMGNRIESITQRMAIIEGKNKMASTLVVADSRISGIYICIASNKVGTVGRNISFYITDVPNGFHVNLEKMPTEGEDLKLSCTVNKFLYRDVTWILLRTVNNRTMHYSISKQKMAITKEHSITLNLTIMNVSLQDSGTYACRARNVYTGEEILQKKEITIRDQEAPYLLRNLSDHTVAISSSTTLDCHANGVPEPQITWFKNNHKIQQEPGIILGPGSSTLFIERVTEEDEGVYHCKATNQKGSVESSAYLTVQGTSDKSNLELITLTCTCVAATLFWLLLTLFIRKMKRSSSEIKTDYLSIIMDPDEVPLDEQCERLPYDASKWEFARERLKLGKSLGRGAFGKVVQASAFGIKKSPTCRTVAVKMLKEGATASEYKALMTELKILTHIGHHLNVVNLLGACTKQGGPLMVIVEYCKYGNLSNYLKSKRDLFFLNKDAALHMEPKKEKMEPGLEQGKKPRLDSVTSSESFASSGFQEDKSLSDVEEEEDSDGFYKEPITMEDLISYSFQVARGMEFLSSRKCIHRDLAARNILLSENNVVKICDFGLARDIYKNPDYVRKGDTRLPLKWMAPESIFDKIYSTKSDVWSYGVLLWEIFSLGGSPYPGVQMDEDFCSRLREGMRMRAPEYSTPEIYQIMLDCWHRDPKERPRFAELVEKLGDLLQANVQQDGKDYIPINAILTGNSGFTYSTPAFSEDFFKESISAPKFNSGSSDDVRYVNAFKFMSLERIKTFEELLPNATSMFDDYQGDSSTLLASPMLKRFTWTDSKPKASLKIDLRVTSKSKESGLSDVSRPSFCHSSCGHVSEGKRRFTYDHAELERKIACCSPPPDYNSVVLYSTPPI

IC50 [3] [µM]	IC50 [4] [µM]	IC50 [5] [µM]	SMILES	other results
–	–	–	O=C(Nc1ccc(-n2ncc3c(Br)cccc32)cc1)Nc1ccc(Cl)c(C(F)(F)F)c1	IC50 [1]: 3.43 µM
–	–	–	COc1cc2nccc(Oc3ccc(NC(=O)C4(C(=O)Nc5ccc(F)cc5)CC4)cc3)c2cc1OC [CABOZANTINIB]	IC50 [2]: 0.006 µM
27.3	40.9	21.8	CC(=O)/C=C/c1ccc(OC2CCCC2)cc1	–
–	–	–	O=C(Nc1ccc(-n2ncc3cc(C(F)(F)F)ccc32)cc1)Nc1ccc(C(F)(F)F)cc1	IC50 [6]: 4.34 µM
71.3	64.7	26.9	O=C1CCCCC/C1=C\c1ccc(OC2CCCC2)cc1	–
20	36.4	17.1	Cc1ccc(C(=O)/C=C/c2ccc(OC3CCCC3)cc2)cc1	–
55.4	49.4	71.1	O=C1CCCC/C1=C\c1ccc(OC2CCCC2)cc1	–
> 100	> 100	94.1	O=C1CCC/C1=C\c1ccc(OC2CCCC2)cc1	–
7.2	5.6	7.8	Cc1ccc(C2=NN(c3ccccc3)C(c3ccc(OC4CCCC4)cc3)C2)cc1 (stereo unspecified)	–
–	–	–	Cc1ccc(NC(=O)C2(C(=O)Nc3ccc(C)c(Oc4ccc(C#N)cc4)c3)CC2)cc1Oc1ccc(C#N)cc1	Activity [7]: 2.5%; Activity [8]: 2%; Activity [9]: 80%; Activity [10]: 4.5%
–	–	–	COc1cc2nccc(Oc3ccc(NC(=O)NC4CC4)c(Cl)c3)c2cc1C(N)=O [LENVATINIB]	IC50 [11]: 0.022 µM
13	13.7	9.1	CCN1CCC(=O)/C(=C/c2ccc(OC3CCCC3)cc2)C1	–
8	7.5	13.3	CCOC(=O)C1=C(C)OC(N)=C(C#N)C1c1ccc(OC2CCCC2)cc1 (stereo unspecified)	–
–	–	–	O=C(Nc1ccc(Cl)cc1)Nc1ccc(Oc2ncnc3cc(F)ccc23)cc1	IC50 [12]: 10.6 µM; IC50 [13]: 8.08 µM
15.9	18.1	10.5	CN1CCC(=O)/C(=C/c2ccc(OC3CCCC3)cc2)C1	–
–	–	–	Cc1ccc(NC(=O)Nc2ccc(C)c(Oc3ccc(C#N)cc3)c2)cc1Oc1ccc(C#N)cc1	Activity [7]: 17.5%; Activity [8]: 22.5%; Activity [9]: 40%; Activity [10]: 17.5%
